Measurements: patent US20240124464A1, “SUBSTITUTED FUSED BICYCLIC COMPOUND AS KINASE INHIBITOR AND USE THEREOF” (IMPACT THERAPEUTICS (SHANGHAI), INC, priority 2020, published 2024)
pIC50: −log10 of the molar value.

What was measured:
NUAK1(h) enzyme = biological target: T1, NUAK1(h) enzyme (Homo sapiens, UniProt O60285); assay: In vitro NUAK1 enzymatic assay (Eurofins Discovery, [γ-33P]-ATP filter assay); format: biochemical; details: 45 μM ATP, 40 min, room temperature; read-out: IC50, inhibitory effect on NUAK1 enzyme activity
T1 construct: purchased Eurofins Discovery
T1 sequence (O60285 1-661): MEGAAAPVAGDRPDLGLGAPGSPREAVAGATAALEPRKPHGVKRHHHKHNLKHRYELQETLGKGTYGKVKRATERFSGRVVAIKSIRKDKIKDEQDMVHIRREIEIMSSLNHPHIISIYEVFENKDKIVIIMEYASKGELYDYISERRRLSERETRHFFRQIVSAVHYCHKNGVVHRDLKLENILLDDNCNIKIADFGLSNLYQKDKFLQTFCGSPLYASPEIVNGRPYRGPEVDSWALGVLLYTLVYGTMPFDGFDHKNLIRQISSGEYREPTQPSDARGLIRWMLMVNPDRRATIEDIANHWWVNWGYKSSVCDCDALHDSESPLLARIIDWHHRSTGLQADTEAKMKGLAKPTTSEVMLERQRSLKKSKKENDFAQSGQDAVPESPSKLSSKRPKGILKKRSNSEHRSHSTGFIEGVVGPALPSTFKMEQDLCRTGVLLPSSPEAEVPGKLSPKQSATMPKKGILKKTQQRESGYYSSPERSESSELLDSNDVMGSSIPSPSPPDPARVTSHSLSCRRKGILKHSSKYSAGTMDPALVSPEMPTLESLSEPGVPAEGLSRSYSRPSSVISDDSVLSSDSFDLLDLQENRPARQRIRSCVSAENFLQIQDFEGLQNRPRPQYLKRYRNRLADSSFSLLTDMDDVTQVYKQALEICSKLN
Description: In Vitro Assay to Determine the Inhibitory Effect of Compounds in the Patent on NUAK1 Enzymatic Activity
The in vitro NUAK1 enzymatic assay was carried out at Eurofins Discovery to evaluate the inhibitory effect of the compounds presented in the invention. The assay protocol is as follow: the compound to be tested was mixed with NUAK1(h) enzyme and 300 μM […] substrate in 8 mM MOPS (pH 7.0) buffer containing 0.2 mM EDTA and incubated at room temperature. A Mg/ATP mixture containing 10 mM magnesium acetate and 45 μM [y-33P]-ATP was added to start the reaction. After incubation for 40 min at room temperature, the reaction was terminated by adding 0.5% phosphoric acid. Then, 10 μL of the reaction mix was spotted onto a P30 filter paper followed with four times of wash with 0.425% phosphoric acid solution (4 min each time), and one time wash with methanol. The filter paper was air-dried and counted in a liquid scintillation counter. The values obtained were plotted against the drug concentration and the IC50 was calculated.
Table 1 summarizes the inhibitory effect (IC50) of compounds tested on the NUAK1 enzyme activity in the present invention. ++++ indicates IC50≤10 nM; […]; ++ indicates 100 nM<IC50≤1 μM; + indicates IC50>1 μM.

NUAK2(h) enzyme = biological target: T2, NUAK2(h) enzyme (Homo sapiens, UniProt Q9H093); assay: In vitro NUAK2 enzymatic assay (Eurofins Discovery, [γ-33P]-ATP filter assay); format: biochemical; details: 45 μM ATP, 40 min, room temperature; read-out: IC50, inhibitory effect on NUAK2 enzyme activity
T2 construct: purchased Eurofins Discovery
T2 sequence (Q9H093 1-628): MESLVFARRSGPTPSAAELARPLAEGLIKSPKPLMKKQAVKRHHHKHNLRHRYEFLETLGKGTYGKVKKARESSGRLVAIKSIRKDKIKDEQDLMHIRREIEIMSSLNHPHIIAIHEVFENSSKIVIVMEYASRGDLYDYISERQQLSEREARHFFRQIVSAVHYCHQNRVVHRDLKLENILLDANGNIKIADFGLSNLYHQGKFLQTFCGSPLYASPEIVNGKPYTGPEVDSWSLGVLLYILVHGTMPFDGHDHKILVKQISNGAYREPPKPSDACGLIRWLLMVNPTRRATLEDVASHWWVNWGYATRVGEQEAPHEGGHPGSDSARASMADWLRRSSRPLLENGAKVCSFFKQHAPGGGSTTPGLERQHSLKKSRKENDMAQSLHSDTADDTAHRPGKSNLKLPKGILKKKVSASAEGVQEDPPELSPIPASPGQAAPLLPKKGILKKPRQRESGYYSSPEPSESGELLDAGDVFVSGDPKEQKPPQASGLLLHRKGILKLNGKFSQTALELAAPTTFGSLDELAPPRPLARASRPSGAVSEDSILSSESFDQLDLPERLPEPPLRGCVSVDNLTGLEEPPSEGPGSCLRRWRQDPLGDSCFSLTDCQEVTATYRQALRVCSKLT
Description: In Vitro Assay to Determine the Inhibitory Effect of Compounds in the Patent on NUAK2 Enzymatic Activity
The in vitro NUAK2 enzymatic assay was carried out at Eurofins Discovery to evaluate the inhibitory effect of the compounds presented in the invention. The assay protocol is as follow: the compound to be tested was mixed with NUAK2(h) enzyme and 300 […] substrate in 8 mM MOPS (pH 7.0) buffer containing 0.2 mM EDTA. A Mg/ATP mixture containing 10 mM magnesium acetate and 45 μM [γ-33P]-ATP was added to start the reaction. After incubation for 40 min at room temperature, the reaction was terminated by adding 0.5% phosphoric acid. Then 10 μL of the reaction mix was spotted onto a P30 filter paper. The filter paper was washed four times with 0.425% phosphoric acid with 4 min for each wash, and one time with methanol. The filter paper was air-dried and counted in a liquid scintillation counter. The values obtained were plotted against the drug concentration and the IC50 was calculated.
Table 1 summarizes the inhibitory effect (IC50) of compounds on the NUAK2 enzyme activity in the present invention. ++++ indicates IC50≤10 nM; +++ indicates 10 nM<IC50≤100 nM; ++ indicates 100 nM<IC50≤1 μM; + indicates IC50>1 μM.

[1] = tested on: HEC-1-B human endometrial cancer cells; assay: CTG (CellTiter-Glo) proliferation assay on HEC-1-B cells, 7 days; format: cell-based; details: 168 h, 7 days incubation, read-out: IC50, inhibitory effect on proliferation of Hec-1B cells
Description: CTG Assay to Evaluate the Inhibitory Effect of Compounds on HEC-1-B Human Endometrial Cancer Cells
Human endometrial cancer HEC-1-B cells were resuscitated and cultured in complete medium (MEM medium+10% FBS). When reaching about 80% confluence, the cells were gently blown away from the bottom of the culture dish with a 1 mL pipette. The cells were collected and centrifuged at 500 rpm for 3 min. The supernatant was discarded and the cell pellet was resuspend in fresh medium. Cells were counted to determine cell density and seeded into 96-well plates at a density of 1000 cells per well and incubated overnight at 37° C. in a 5% CO2 incubator. In the next day, the compounds in storage solution was serially diluted with DMSO at a ratio of 1:3 for a total of 9 concentrations. Two μL of each serially diluted solution was added to 98 μL of cell culture medium ([…]), while DMSO was mixed with culture medium similarly to be served as control. The compound dilutions were shaken and mixed. The cell culture plate with cells was removed from CO2 incubator, the culture medium was aspirated from each well, 135 μL of fresh medium was added to each well followed with 15 μL of the compound dilutions. The plates were incubated at 37° C. for 7 days in a 5% CO2 incubator. One hundred μL CellTiter-Glo reagent was added to each well and the plate was vortexed for 2 min and incubated for 10 min to fully lyse the cells. The chemiluminescence values were read using a plate reader.
The chemiluminescence values were plotted against compound concentrations to calculate the inhibitory activity of each compound on cell proliferation Cell inhibition rate (%)=(chemiluminescence value tested compound−chemiluminescence value DMSO control)/(chemiluminescence value medium control−chemiluminescence valueDMSO control)×100%.
A nonlinear S-curve regression was fitted using XLFit software to fit the data to derive a dose-effect curve, from which the IC50 values were calculated. The curve equation was Y=Bottom+(Top-Bottom)/(1+10{acute over ( )}((LogIC50-X)×slope)), where Y is the cellular inhibition rate, X is the compound concentration, Bottom refers to the lowest inhibition rate, and Top refers to the highest inhibition rate.
Table 3 summarizes the inhibitory effects (IC50) of the compounds on the proliferation of Hec-1B cells, Where ++++ indicates 100 nM<IC50≤500 nM; +++ indicates 500 nM<IC50≤1 μM; ++ indicates 1 μM<IC50≤10 μM; + indicates IC50>10 μM.

SMILES	pIC50 (NUAK1(h) enzyme)	pIC50 (NUAK2(h) enzyme)	pIC50 [1]
COc1cc(N2CCN(C)CC2)ccc1Nc1ncc2c(n1)N(C1CCCC1)C(=O)NC2 [Example 2, 1-cyclopentyl-7-((2-methoxy-4-(4-methylpiperazin-1-yl)phenyl)amino)-3,4-dihydropyrimido[4,5-d]pyrimidin-2(1H)-one]	7.00 to 8.00	7.00 to 8.00	5.00 to 6.00
COc1cc(N2CCN(C)CC2)ccc1Nc1ncc2cnc(=O)n(C3CCCC3)c2n1 [Example 5, 1-cyclopentyl-7-((2-methoxy-4-(4-methylpiperazin-1-yl)phenyl)amino)pyrimido[4,5-d]pyrimidin-2(1H)-one]	6.00 to 7.00	≥ 8.00	6.00 to 6.30
COc1cc(N2CCN(C)CC2)ccc1Nc1ncc2cnc(=O)n(C3CCCCC3)c2n1 [Example 6, 1-cyclohexyl-7-((2-methoxy-4-(4-methylpiperazin-1-yl)phenyl)amino)pyrimido[4,5-d]pyrimidin-2(1H)-one]	6.00 to 7.00	7.00 to 8.00	6.00 to 6.30
Cc1cc(N2CCN(C)CC2)ccc1Nc1ncc2cnc(=O)n(C3CCCC3)c2n1 [Example 10, 1-cyclopentyl-7-((2-methyl-4-(4-methylpiperazin-1-yl)phenyl)amino)pyrimido[4,5-d]pyrimidin-2(1H)-one]	6.00 to 7.00	7.00 to 8.00	6.00 to 6.30
COc1cc(N2CCN(C)CC2)ccc1Nc1ncc2ccc(=O)n(C3CCCC3)c2n1 [Example 19, 8-cyclopentyl-2-((2-methoxy-4-(4-methylpiperazin-1-yl)phenyl)amino)pyrido[2,3-d]pyrimidin-7(8H)-one]	7.00 to 8.00	≥ 8.00	6.00 to 6.30
COc1cc(N2CCN(C)CC2)ccc1Nc1ncc2cc(C)c(=O)n(C3CCCC3)c2n1 [Example 20, 8-cyclopentyl-2-((2-methoxy-4-(4-methylpiperazin-1-yl)phenyl)amino)-6-methylpyrido[2,3-d]pyrimidin-7(8H)-one]	7.00 to 8.00	7.00 to 8.00	< 5.00
COc1cc(N2CCN(C)CC2)ccc1Nc1ncc2cc(C)c(=O)n(C3CC3)c2n1 [Example 21]	7.00 to 8.00	6.00 to 7.00	6.30 to 7.00
COc1cc(N2CCN(C)CC2)ccc1Nc1ncc2ccc(=O)n(C3CCCCC3)c2n1 [Example 22, 8-cyclohexyl-2-((2-methoxy-4-(4-methylpiperazin-1-yl)phenyl)amino)pyrido[2,3-d]pyrimidin-7(8H)-one]	≥ 8.00	≥ 8.00	< 5.00
COc1cc(N2CCN(C)CC2)ccc1Nc1ncc2ccc(=O)n(C3CC3)c2n1 [Example 23, 8-cyclopropyl-2-((2-methoxy-4-(4-methylpiperazin-1-yl)phenyl)amino)pyrido[2,3-d]pyrimidin-7(8H)-one]	7.00 to 8.00	6.00 to 7.00	6.30 to 7.00
COc1cc(N2CCN(C)CC2)ccc1Nc1nnc2ccc(=O)n(C3CCCC3)c2n1 [Example 24, 5-cyclopentyl-3-((2-methoxy-4-(4-methylpiperazin-1-yl)phenyl)amino)pyrido[2,3-e][1,2,4]triazin-6(5H)-one]	6.00 to 7.00	7.00 to 8.00	6.00 to 6.30
COc1cc(N2CCN(C)CC2)ccc1Nc1ncc2cc(C#N)c(=O)n(C3CCCC3)c2n1 [Example 26, 8-cyclopentyl-2-((2-methoxy-4-(4-methylpiperazin-1-yl)phenyl)amino)-7-oxo-7,8-dihydropyrido[2,3-d]pyrimidine-6-carbonitrile]	7.00 to 8.00	7.00 to 8.00	6.00 to 6.30
COc1cc(N2CCN(C)CC2)ccc1Nc1ncc2c(C)cc(=O)n(C3CCCC3)c2n1 [Example 27, 8-cyclopentyl-2-((2-methoxy-4-(4-methylpiperazin-1-yl)phenyl)amino)-5-methylpyrido[2,3-d]pyrimidin-7(8H)-one]	6.00 to 7.00	6.00 to 7.00	5.00 to 6.00
COc1cc(N2CCN(C)CC2)ccc1Nc1ncc2c(n1)N(C1CCCC1)C(=O)CC2 [Example 28, 8-cyclopentyl-2-((2-methoxy-4-(4-methylpiperazin-1-yl)phenyl)amino)-5,8-dihydropyrido[2,3-d]pyrimidin-7(6H)-one]	6.00 to 7.00	7.00 to 8.00	5.00 to 6.00
COc1cc(N2CCN(C)CC2)ccc1Nc1ncc2c(n1)N(C1CCCCC1)C(=O)CC2 [Example 29, 8-cyclohexyl-2-((2-methoxy-4-(4-methylpiperazin-1-yl)phenyl)amino)-5,8-dihydropyrido[2,3-d]pyrimidin-7(6H)-one]	7.00 to 8.00	7.00 to 8.00	6.00 to 6.30
